The compounds below were run against DNA gyrase (374 kDa Gyr A2B2 subunit from Staphylococcus aureus) (Staphylococcus aureus, UniProt P0A0K8) (assay: Gyrase ATPase Assay). Conditions: 10 μM concentration; ATPase assay at 30° C., 0.9 mM ATP; average of duplicate values; read-out: Gyrase Inhibitory Activity (percent inhibition).
Type: biochemical
Procedure: The ATP hydrolysis activity of DNA gyrase was measure by coupling the production of ADP through pyruvate kinase/lactate dehydrogenase to the oxidation of NADH. This method has been described previously (Tamura and Gellert, 1990, J. Biol. Chem., 265, 21342).
ATPase assays are carried out at 30° C. in buffered solutions containing 100 mM TRIS pH 7.6, 1.5 mM MgCl2, 50 mM KCl. The coupling system contains (final concentrations) 2.5 mM phosphoenol pyruvate, 200 μM nicotinamide adenine dinucleotide (NADH), 1 mM DTT, […], and 10 ug/ml lactate dehydrogenase. 40 nanomolar enzyme (374 kDa Gyr A2B2 subunit from Staphylococcus aureus) and a DMSO solution of the inhibitor to a final concentration of 4% are added and the reaction mixture is allowed to incubate for 10 minutes at 30° C. The reaction is then started by the addition of ATP to a final concentration of 0.9 mM and the rate of NADH disappearance at 340 nanometers is measured over the course of 10 minutes. The percent inhibition values are determined from rate versus concentration profiles and are reported as the average of duplicate values.
The compound numbers correspond to the compound numbers in Table 1. Compounds having an activity designated as “A” provided a percent inhibition value below 50 percent; compounds having an activity designated as “B” provided a percent inhibition value between 50 and 75 percent; and compounds having an activity designated as “C” provided a percent inhibition value greater than 75 percent.

Sequence of DNA gyrase (374 kDa Gyr A2B2 subunit from Staphylococcus aureus) (P0A0K8 whole entry): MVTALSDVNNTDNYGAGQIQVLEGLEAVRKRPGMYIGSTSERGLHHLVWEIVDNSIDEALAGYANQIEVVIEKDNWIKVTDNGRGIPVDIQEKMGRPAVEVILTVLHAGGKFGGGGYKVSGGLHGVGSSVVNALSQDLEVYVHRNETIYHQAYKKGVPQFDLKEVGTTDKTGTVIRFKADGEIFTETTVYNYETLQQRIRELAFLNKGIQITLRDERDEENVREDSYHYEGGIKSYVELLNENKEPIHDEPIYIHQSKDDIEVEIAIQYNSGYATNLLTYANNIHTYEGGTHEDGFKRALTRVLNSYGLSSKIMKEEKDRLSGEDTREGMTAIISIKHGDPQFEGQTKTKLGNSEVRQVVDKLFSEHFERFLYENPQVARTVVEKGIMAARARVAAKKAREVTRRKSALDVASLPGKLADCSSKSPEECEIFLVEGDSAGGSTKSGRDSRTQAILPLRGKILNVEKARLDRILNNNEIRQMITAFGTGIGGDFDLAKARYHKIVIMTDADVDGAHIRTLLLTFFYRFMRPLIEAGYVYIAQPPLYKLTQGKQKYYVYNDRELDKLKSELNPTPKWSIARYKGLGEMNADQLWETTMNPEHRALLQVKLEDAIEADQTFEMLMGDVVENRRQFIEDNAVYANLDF
Sequence of DNA gyrase (374 kDa Gyr A2B2 subunit from Staphylococcus aureus) (P20831 whole entry, further chain): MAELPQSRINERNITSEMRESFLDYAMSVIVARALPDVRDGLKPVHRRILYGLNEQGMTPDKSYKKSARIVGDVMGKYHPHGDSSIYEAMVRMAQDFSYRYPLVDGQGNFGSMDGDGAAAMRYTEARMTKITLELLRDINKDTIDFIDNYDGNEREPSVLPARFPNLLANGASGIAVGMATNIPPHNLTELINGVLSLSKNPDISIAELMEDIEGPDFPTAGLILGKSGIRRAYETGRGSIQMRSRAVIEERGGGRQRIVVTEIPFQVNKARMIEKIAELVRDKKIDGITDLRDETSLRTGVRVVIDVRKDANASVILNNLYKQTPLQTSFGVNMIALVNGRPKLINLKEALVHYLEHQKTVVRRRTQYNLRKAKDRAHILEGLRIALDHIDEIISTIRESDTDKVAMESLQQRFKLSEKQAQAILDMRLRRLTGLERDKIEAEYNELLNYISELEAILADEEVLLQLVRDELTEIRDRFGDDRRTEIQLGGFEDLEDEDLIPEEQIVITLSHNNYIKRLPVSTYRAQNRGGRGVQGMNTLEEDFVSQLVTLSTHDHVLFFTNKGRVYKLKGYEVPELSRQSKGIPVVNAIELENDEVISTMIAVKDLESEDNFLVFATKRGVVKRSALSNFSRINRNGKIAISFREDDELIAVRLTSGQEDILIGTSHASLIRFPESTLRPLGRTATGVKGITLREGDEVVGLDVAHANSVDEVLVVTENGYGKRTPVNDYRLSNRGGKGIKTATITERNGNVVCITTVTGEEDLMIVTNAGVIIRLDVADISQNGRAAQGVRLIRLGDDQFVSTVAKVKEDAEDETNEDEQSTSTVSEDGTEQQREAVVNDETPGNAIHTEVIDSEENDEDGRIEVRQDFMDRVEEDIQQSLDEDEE

Compound | inhibition at 10 µM [%]
CCNC(=O)Nc1nc2cc(-c3cnc(NC(COC(C)(C)C)C(=O)OC(C)(C)C)nc3)ccc2[nH]1 (stereo not shown) [Ia-40] | > 75
CCNC(=S)Nc1nc2cc(-c3cnc(NCC(=O)OC(C)(C)C)nc3)ccc2[nH]1 [Ia-37] | > 75
CCOC(=O)Nc1nc2cc(-c3cc(F)c(F)cc3F)ccc2[nH]1 [Ia-14] | 50 to 75
CCNC(=O)Nc1nc2cc(-c3ccc(CN(C(=O)OC(C)(C)C)C(C)(C)C)nc3)ccc2[nH]1 [Ia-143] | > 75
CCOC(=O)Nc1nc2cc(-c3cnc(OC)nc3)ccc2[nH]1 [Ia-22] | > 75
CCNC(=O)Nc1nc2cc(-c3cnc(NCCC4CCCN4C)nc3)ccc2[nH]1 (stereo not shown) [Ia-106] | > 75
CCNC(=O)Nc1nc2cc(-c3cnc(OC)nc3OC)ccc2[nH]1 [Ia-52] | > 75
CCOC(=O)Nc1nc2cc(-c3ccc(N(C)C)cc3)ccc2[nH]1 [Ia-12] | 50 to 75
CCNC(=O)Nc1nc2cc(-c3cnc(NCC)nc3)ccc2[nH]1 [Ia-66] | > 75
O=C(Nc1nc2cc(-c3cccnc3)ccc2[nH]1)NC1CC1 [Ia-38] | 50 to 75
CCOC(=O)Nc1nc2cc(-c3cccc(C(=O)OC)c3)ccc2[nH]1 [Ia-81] | 50 to 75
CN(C)CCn1c(N)nc2cc(-c3cccnc3)ccc21 [Ia-78] | < 50
CN1CCCC1C(=O)Nc1nc2cc(-c3ccccc3)ccc2[nH]1 (stereo not shown) [Ia-85] | < 50
CCNC(=O)Nc1nc2cc(-c3cnc(NC(CO)C(=O)O)nc3)ccc2[nH]1 (stereo not shown) [Ia-45] | > 75
CCNC(=O)Nc1nc2cc(-c3ccc(CNC(=O)OC(C)(C)C)cc3)ccc2[nH]1 [Ia-135] | > 75
CCNC(=O)Nc1nc2cc(C(=O)O)ccc2[nH]1 [Ia-33] | < 50
CCNC(=O)Nc1nc2cc(-c3cnc(N4CCC(O)CC4)nc3)ccc2[nH]1 [Ia-125] | > 75
CCNC(=O)Nc1nc2cc(-c3ccccc3)cc(C)c2[nH]1 [Ia-43] | > 75
CCNC(=O)Nc1nc2cc(-c3cnc(N4CC(C)CC(C)C4)nc3)ccc2[nH]1 (stereo not shown) [Ia-109] | > 75
CCNC(=O)Nc1nc2cc(-c3ccc(OC)nc3)ccc2[nH]1 [Ia-132] | > 75
CCNC(=O)Nc1nc2cc(-c3cccnc3)c(F)cc2[nH]1 [Ia-62] | > 75

Compound | inhibition at 10 µM [%]
CCNC(=O)Nc1nc2cc(-c3cnc(NCc4cccc(F)c4)nc3)ccc2[nH]1 [Ia-56] | > 75
CCNC(=O)Nc1nc2cc(-c3ccccc3)cc(OC)c2[nH]1 [Ia-50] | 50 to 75
CCOC(=O)Nc1nc2cc(-c3cnc(N)nc3)ccc2[nH]1 [Ia-72] | > 75
CCOC(=O)Nc1nc2cc(-c3ccccc3C(F)(F)F)ccc2[nH]1 [Ia-9] | < 50
CCNC(=O)Nc1nc2cc(-c3cnc(NCc4ccc5c(c4)OCO5)nc3)ccc2[nH]1 [Ia-128] | > 75
CCOC(=O)Nc1nc2cc(-c3ccncc3)ccc2[nH]1 [Ia-4] | > 75
COC(=O)Nc1nc2cc(-c3cnc(NCC(=O)OC(C)(C)C)nc3)ccc2[nH]1 [Ia-76] | > 75
CCOC(=O)Nc1nc2cc(-c3cccc(C(=O)O)c3)ccc2[nH]1 [Ia-24] | > 75
CCNC(=O)Nc1nc2cc(-c3cncc(C(=O)O)c3)ccc2[nH]1 [Ia-60] | > 75
Nc1nc2cc(-c3ccccc3)ccc2[nH]1 [Ia-6] | < 50
CCOC(=O)Nc1nc2cc(-c3cncc(N)c3)ccc2[nH]1 [Ia-115] | < 50
CCOC(=O)Nc1nc2cc(-c3cnc(NCCNC(=O)OC(C)(C)C)nc3)ccc2[nH]1 [Ia-86] | > 75
CCOC(=O)Nc1cncc(-c2ccc3[nH]c(NC(=O)OCC)nc3c2)c1 [Ia-87] | > 75
COC(=O)Nc1nc2cc(-c3ccccc3)ccc2[nH]1 [Ia-7] | < 50
CCNC(=O)Nc1nc2cc(-c3cnc(N4CCOCC4)nc3)ccc2[nH]1 [Ia-53] | > 75
CCOC(=O)Nc1nc2cc(-c3ccc(=O)[nH]c3)ccc2[nH]1 [Ia-71] | < 50
CCOC(=O)Nc1nc2cc(-c3ccc(OC)nc3)ccc2[nH]1 [Ia-18] | > 75
CC(C)(C)OCC(Nc1ncc(-c2ccc3[nH]c(NC#N)nc3c2)cn1)C(=O)OC(C)(C)C (stereo not shown) [Ia-41] | < 50
CCNC(=S)Nc1nc2cc(-c3cnc(NCC(=O)O)nc3)ccc2[nH]1 [Ia-39] | > 75
CCNC(=O)Nc1nc2cc(-c3ccccc3)ccc2[nH]1 [Ia-84, 1-Ethyl-3-(5-phenyl-1H-benzoimidazol-2-yl)-urea] | > 75
CCOC(=O)Nc1nc2cc(-c3cnc(NCC(=O)O)nc3)ccc2[nH]1 [Ia-80] | > 75

Compound | inhibition at 10 µM [%]
CCOC(=O)Nc1nc2cc(-c3cnc(NCCN)nc3)ccc2[nH]1 [Ia-88] | > 75
CCOC(=O)Nc1nc2cc(-c3ccc(OC)cc3)ccc2[nH]1 [Ia-23] | > 75
CCCNc1nc2cc(-c3cccnc3)ccc2[nH]1 [Ia-74] | < 50
CCOC(=O)Nc1nc2cc(-c3cccnc3)ccc2[nH]1 [Ia-11, (5-Pyridin-3-yl-1H-benzoimidazol-2-yl)-carbamic acid ethyl ester] | > 75
CNc1nc2cc(-c3cccnc3)ccc2n1CCN(C)C [Ia-79] | < 50
CCN/C(=N\C)Nc1nc2cc(-c3ccccc3)ccc2[nH]1 [Ia-97] | < 50
CCNC(=O)Nc1nc2cc(-c3cnc(NCCN4CCCC4)nc3)ccc2[nH]1 [Ia-55] | > 75
O=C(Nc1nc2cc(-c3ccccc3)cc(Br)c2[nH]1)N1CCCCC1 [Ia-20] | < 50
CCNC(=O)Nc1nc2cc(-c3cnc(N4CCN(C)CC4)nc3)ccc2[nH]1 [Ia-64] | > 75
CCNC(=O)Nc1nc2cc(C(=O)NOC(C)(C)C)ccc2[nH]1 [Ia-46] | < 50
CCNC(=O)Nc1nc2cc(-c3cncc(C(=O)OCC)c3)ccc2[nH]1 [Ia-59] | > 75
CCNC(=O)Nc1nc2cc(-c3cnc(N)nc3)c(OC)cc2[nH]1 [Ia-126] | > 75
CCNC(=O)Nc1nc2cc(-c3cnc(N)nc3)ccc2[nH]1 [Ia-54] | > 75
CCNC(=O)Nc1nc2cc(-c3cnc(NCCc4ccccn4)nc3)ccc2[nH]1 [Ia-63] | > 75
CCNC(=N)Nc1nc2cc(-c3ccccc3)ccc2[nH]1 [Ia-101] | < 50
CCNC(=S)Nc1nc2cc(-c3cccnc3)ccc2[nH]1 [Ia-34] | > 75
CCNC(=O)Nc1nc2cc(-c3cnc(NCc4ccccn4)nc3)ccc2[nH]1 [Ia-48] | > 75
CCCc1cc(-c2ccccc2)cc2nc(NC(=O)OCC)[nH]c12 [Ia-13] | < 50
CCNC(=O)Nc1nc2cc(-c3cnc(N)nc3)c(F)cc2[nH]1 [Ia-131] | > 75
CCOC(=O)Nc1nc2cc(-c3cccs3)ccc2[nH]1 [Ia-2] | 50 to 75
COC(=O)CCNc1nc2cc(-c3cccnc3)ccc2[nH]1 [Ia-75] | < 50

Compound | inhibition at 10 µM [%]
C#CCOC(=O)Nc1nc2cc(-c3ccccc3)ccc2[nH]1 [Ia-8] | < 50
CCNC(=O)Nc1nc2cc(-c3cnc(N4CCCC4)nc3)ccc2[nH]1 [Ia-65] | > 75
CCOC(=O)Nc1nc2cc(-c3ccccc3)ccc2n1C [Ia-10] | < 50
CCNC(=O)Nc1nc2cc(-n3cc(C(=O)N4CCOCC4)cn3)ccc2[nH]1 [Ia-172] | > 75
CCOC(=O)Nc1nc2cc(-c3ccc(OC)c(OC)c3)ccc2[nH]1 [Ia-26] | 50 to 75
CCCCNc1nc2cc(-c3cccnc3)ccc2[nH]1 [Ia-73] | < 50
CCNC(=O)Nc1nc2cc(-c3cnc(NCC(=O)O)nc3)ccc2[nH]1 [Ia-35] | > 75
CCOC(=O)Nc1nc2cc(-c3cnc(N4CCNCC4)nc3)ccc2[nH]1 [Ia-70] | > 75
CCCC(=O)Nc1nc2cc(-c3ccccc3)ccc2[nH]1 [Ia-82] | < 50
CCNC(=O)Nc1nc2cc(-c3cccnc3)cc(F)c2[nH]1 [Ia-103] | > 75
CCNC(=O)Nc1nc2cc(-c3ccc(F)nc3)ccc2[nH]1 [Ia-136] | > 75
CCOC(=O)Nc1nc2cc(-c3ccccn3)ccc2[nH]1 [Ia-3] | 50 to 75
CCOC(=O)Nc1nc2cc(-c3cnc(NC(CO)C(=O)O)nc3)ccc2[nH]1 (stereo not shown) [Ia-94] | > 75
CCOC(=O)Nc1nc2cc(-c3cccnc3)cc(Br)c2[nH]1 [Ia-17] | > 75
CCCN(CC1CC1)c1ncc(-c2ccc3[nH]c(NC(=O)NCC)nc3c2)cn1 [Ia-127] | > 75
CCNC(=O)Nc1nc2cc(-c3cnc(NCC4CCCO4)nc3)ccc2[nH]1 (stereo not shown) [Ia-47] | > 75
CCNC(=O)Nc1nc2cc(-c3cnc(NC(C)COC)nc3)ccc2[nH]1 (stereo not shown) [Ia-100] | > 75
CCNC(=O)Nc1nc2cc(-c3cnc(NC4CCCC4)nc3)ccc2[nH]1 [Ia-57] | > 75
CCOC(=O)Nc1nc2cc(-c3cnc(NC(COC(C)(C)C)C(=O)OC(C)(C)C)nc3)ccc2[nH]1 (stereo not shown) [Ia-93] | > 75

— patent US6632809B2, “Gyrase inhibitors and uses thereof” (Vertex Pharmaceuticals Incorporated, priority 2000, dated 2003)
